PubChem BioAssay (NCI)
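Dose response: 5 concentrations. Exposure: 48 h. Format: 96-well plates. Endpoint: linear interpolation; highest concentration if not reached. TGI: concentration producing complete growth inhibition.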

Columns and labels:
Assay in all cases: growth of human tumour cells (NCI), 48 h
[1] = tested on: SK-OV-3 ovarian
[2] = tested on: HOP-62 NSCLC
[3] = tested on: SF-268 CNS
[4] = tested on: UACC-62 melanoma
[5] = tested on: SW-620 colon
[6] = tested on: OVCAR-3 ovarian
[7] = tested on: NCI-H23 lung
[8] = tested on: SR leukemia
[9] = tested on: EKVX NSCLC
[10] = tested on: NCI-H226 lung
[11] = tested on: SN12C renal
[12] = tested on: SF-295 CNS
[13] = tested on: MDA-MB-435
[14] = tested on: SK-MEL-28 melanoma
[15] = tested on: CCRF-CEM leukemia
[16] = tested on: DU-145 prostate
[17] = tested on: CAKI-1 renal
[18] = tested on: UACC-257 melanoma
[19] = tested on: SF-539 CNS
[20] = tested on: HT29 colon
[21] = tested on: MCF7 breast
[22] = tested on: MALME-3M melanoma
[23] = tested on: RXF 393 renal
[24] = tested on: NCI-H460 lung
[25] = tested on: OVCAR-4 ovarian
[26] = tested on: M14 melanoma
[27] = tested on: U251 CNS
[28] = tested on: SNB-75 CNS
[29] = tested on: HS 578T breast
[30] = tested on: A549 NSCLC
[31] = tested on: NCI-H522 lung
[32] = tested on: BT-549 breast
[33] = tested on: COLO 205 colon
[34] = tested on: TK-10 renal
[35] = tested on: ACHN renal
[36] = tested on: UO-31 renal
[37] = tested on: HCT-116 colon
[38] = tested on: IGROV1 ovarian
[39] = tested on: OVCAR-5 ovarian
[40] = tested on: SK-MEL-5 melanoma
[41] = tested on: LOX IMVI melanoma
[42] = tested on: PC-3 prostate
[43] = tested on: MDA-N
[44] = tested on: HOP-92 NSCLC
[45] = tested on: MDA-MB-231 breast
[46] = tested on: RPMI-8226 leukemia
[47] = tested on: K-562 leukemia
[48] = tested on: KM12 colon
[49] = tested on: HL-60(TB) leukemia
[50] = tested on: SNB-19 CNS
[51] = tested on: NCI/ADR-RES ovarian
[52] = tested on: OVCAR-8 ovarian
[53] = tested on: HCT-15 colon
[54] = tested on: MOLT-4 leukemia
[55] = tested on: T-47D breast
[56] = tested on: HCC-2998 colon
[57] = tested on: SK-MEL-2 melanoma
[58] = tested on: 786-0 renal
[59] = tested on: A498 renal

In the case of `COc1ccc2c(c1)CC1Cc3ccccc3CCN1C2` (stereo not drawn), the TGI [1] is reported as over 100 µM, the TGI [2] is reported as over 100 µM and the TGI [3] is reported as over 100 µM. It also gave a TGI [4] of over 100 µM, a TGI [5] of over 100 µM and a TGI [6] of over 100 µM. For the same compound, the TGI [7] was over 100 µM, the TGI [8] was over 100 µM and the TGI [9] was over 100 µM. It also gave a TGI [10] of over 100 µM, a TGI [11] of over 100 µM and a TGI [12] of over 100 µM. The TGI [13] was over 100 µM, the TGI [14] was over 100 µM and the TGI [15] was over 100 µM. For the same compound, the TGI [16] was over 100 µM, the TGI [17] was 59.1 µM and the TGI [18] was over 100 µM. For the same compound, the TGI [19] was over 100 µM, the TGI [20] was over 100 µM and the TGI [21] was over 100 µM. For the same compound, the TGI [22] was over 100 µM, the TGI [23] was over 100 µM and the TGI [24] was over 100 µM. The TGI [25] was over 100 µM, the TGI [26] was over 100 µM and the TGI [27] was over 100 µM. For the same compound, the TGI [28] was over 100 µM, the TGI [29] was over 100 µM and the TGI [30] was over 100 µM. For the same compound, the TGI [31] was 63.6 µM, the TGI [32] was over 100 µM and the TGI [33] was over 100 µM. It also gave a TGI [34] of over 100 µM, a TGI [35] of over 100 µM and a TGI [36] of over 100 µM. For the same compound, the TGI [37] was over 100 µM, the TGI [38] was over 100 µM and the TGI [39] was over 100 µM. The TGI [40] was 41.7 µM, the TGI [41] was 51.8 µM and the TGI [42] was over 100 µM. For the same compound, the TGI [43] was over 100 µM, the TGI [44] was over 100 µM and the TGI [45] was 63.6 µM. It also gave a TGI [46] of 92.3 µM, a TGI [47] of over 100 µM and a TGI [48] of over 100 µM. It also gave a TGI [49] of over 100 µM, a TGI [50] of over 100 µM and a TGI [51] of over 100 µM. For the same compound, the TGI [52] was over 100 µM, the TGI [53] was over 100 µM and the TGI [54] was over 100 µM. The TGI [55] was over 100 µM, the TGI [56] was over 100 µM and the TGI [57] was over 100 µM.

For `CCCCc1ccc(-n2sc3ncccc3c2=O)cc1`, the TGI [1] was 90.5 µM, the TGI [2] was 36.2 µM and the TGI [3] was 47.4 µM. For the same compound, the TGI [4] was 43.9 µM, the TGI [5] was 72.1 µM and the TGI [6] was 42.5 µM. For the same compound, the TGI [7] was 41.9 µM, the TGI [8] was 60.4 µM and the TGI [9] was 25.2 µM. For the same compound, the TGI [10] was 64.2 µM, the TGI [11] was 37.7 µM and the TGI [12] was 31.2 µM. It also gave a TGI [13] of 37.5 µM, a TGI [14] of 33.1 µM and a TGI [16] of over 100 µM. The TGI [18] was 43.7 µM, the TGI [19] was 41 µM and the TGI [20] was 33.1 µM. For the same compound, the TGI [21] was 72.2 µM, the TGI [22] was 14.9 µM and the TGI [24] was 26 µM. The TGI [25] was 58 µM, the TGI [26] was 26.8 µM and the TGI [27] was 42.7 µM. It also gave a TGI [28] of 50.3 µM, a TGI [29] of 43.2 µM and a TGI [30] of 99.4 µM. It also gave a TGI [31] of 8.4 µM, a TGI [32] of 35.7 µM and a TGI [33] of 33.3 µM. The TGI [34] was 27.4 µM, the TGI [35] was 23.5 µM and the TGI [58] was 25.2 µM. It also gave a TGI [36] of 34.7 µM, a TGI [37] of 26.3 µM and a TGI [38] of 33.3 µM. For the same compound, the TGI [39] was 40.6 µM, the TGI [40] was 26.4 µM and the TGI [41] was 43.6 µM. It also gave a TGI [42] of 25.5 µM, a TGI [43] of 29.3 µM and a TGI [45] of 32 µM. For the same compound, the TGI [46] was over 100 µM, the TGI [48] was 32.5 µM and the TGI [49] was 6.07 µM. It also gave a TGI [50] of over 100 µM, a TGI [51] of 43.9 µM and a TGI [52] of 45.7 µM. The TGI [53] was 19.9 µM, the TGI [54] was 57.7 µM and the TGI [55] was 45.7 µM. For the same compound, the TGI [56] was 33.7 µM and the TGI [57] was 43.9 µM.

`Cc1ccc(N=C2SC(c3ccc(C)cc3)(c3ccc(C)cc3)c3ccccc32)cc1` showed a TGI [1] of over 100 µM, a TGI [2] of over 100 µM and a TGI [3] of over 100 µM. It also gave a TGI [4] of over 100 µM, a TGI [5] of over 100 µM and a TGI [6] of over 100 µM. It also gave a TGI [7] of over 100 µM, a TGI [9] of over 100 µM and a TGI [10] of over 100 µM. It also gave a TGI [11] of over 100 µM, a TGI [12] of over 100 µM and a TGI [13] of over 100 µM. For the same compound, the TGI [14] was over 100 µM, the TGI [15] was over 100 µM and the TGI [16] was over 100 µM. For the same compound, the TGI [17] was over 100 µM, the TGI [18] was over 100 µM and the TGI [19] was over 100 µM. For the same compound, the TGI [20] was over 100 µM, the TGI [21] was over 100 µM and the TGI [22] was over 100 µM. It also gave a TGI [23] of over 100 µM, a TGI [24] of over 100 µM and a TGI [25] of over 100 µM. For the same compound, the TGI [26] was over 100 µM, the TGI [27] was over 100 µM and the TGI [28] was over 100 µM. It also gave a TGI [29] of over 100 µM, a TGI [30] of over 100 µM and a TGI [31] of over 100 µM. For the same compound, the TGI [32] was over 100 µM, the TGI [33] was over 100 µM and the TGI [34] was over 100 µM. The TGI [35] was over 100 µM, the TGI [58] was over 100 µM and the TGI [36] was over 100 µM. For the same compound, the TGI [37] was over 100 µM, the TGI [38] was over 100 µM and the TGI [39] was over 100 µM. It also gave a TGI [59] of over 100 µM, a TGI [40] of over 100 µM and a TGI [41] of over 100 µM. For the same compound, the TGI [42] was over 100 µM, the TGI [43] was over 100 µM and the TGI [44] was over 100 µM. The TGI [45] was over 100 µM, the TGI [46] was over 100 µM and the TGI [47] was over 100 µM. It also gave a TGI [48] of over 100 µM, a TGI [49] of over 100 µM and a TGI [50] of over 100 µM. It also gave a TGI [51] of over 100 µM, a TGI [52] of over 100 µM and a TGI [53] of over 100 µM. It also gave a TGI [54] of over 100 µM, a TGI [55] of over 100 µM and a TGI [56] of over 100 µM. For the same compound, the TGI [57] was over 100 µM.
